Literature values in patent US7383946B2 (priority 2004, dated 2008).

[O][Cl+][O-] [Chlorine dioxide, chlorine dioxide]
concentration at which chlorine dioxide is stable in water and aqueous solutions: approximately 10 g/L
